In patent US20190292179A1 (BRISTOL-MYERS SQUIBB COMPANY, priority 2016, published 2019):
Where a name gives a salt, the structure may show the parent alone.

How the values were obtained:
HIS-TGFβR2 WT = HIS-TGFβR2 WT (Homo sapiens, UniProt P37173); test: HTRF probe-displacement assay with HIS-TGFβR2 WT; assay type: binding; conditions: 1 nM HIS-TGFβR2 WT, labeled probe at Kd, 1 hour at room temperature
Protocol: (§1) The reaction is incubated for 1 hour at room temperature and the HTRF signal was measured on an Envision plate reader (Ex: 340 nm; Em: 520 nm/495 nm). Inhibition data were calculated by comparison to no enzyme control reactions for 100% inhibition and vehicle-only reactions for 0% inhibition. The final concentration of reagents in the assay are 1 nM HIS-TGFβR1 T204D or HIS-TGFβR2 WT, 0.2 nM anti-HIS detection antibody, labeled small molecule probe (at Kd) and 0.5% DMSO. Dose response curves were generated to determine the concentration required inhibiting 50% of kinase activity (IC50). Compounds were dissolved at 10 mM in dimethylsulfoxide (DMSO) and evaluated at eleven concentrations. IC50 values were derived by non-linear regression analysis.

HIS-TGFβR1 T204D = molecular target: T1, HIS-TGFβR1 T204D (Homo sapiens, UniProt P36897, T204D); test: HTRF probe-displacement assay with HIS-TGFβR1 T204D; assay type: binding; conditions: 1 nM HIS-TGFβR1 T204D, labeled probe at Kd, 1 hour at room temperature
T1 sequence (P36897 34-503 T204D): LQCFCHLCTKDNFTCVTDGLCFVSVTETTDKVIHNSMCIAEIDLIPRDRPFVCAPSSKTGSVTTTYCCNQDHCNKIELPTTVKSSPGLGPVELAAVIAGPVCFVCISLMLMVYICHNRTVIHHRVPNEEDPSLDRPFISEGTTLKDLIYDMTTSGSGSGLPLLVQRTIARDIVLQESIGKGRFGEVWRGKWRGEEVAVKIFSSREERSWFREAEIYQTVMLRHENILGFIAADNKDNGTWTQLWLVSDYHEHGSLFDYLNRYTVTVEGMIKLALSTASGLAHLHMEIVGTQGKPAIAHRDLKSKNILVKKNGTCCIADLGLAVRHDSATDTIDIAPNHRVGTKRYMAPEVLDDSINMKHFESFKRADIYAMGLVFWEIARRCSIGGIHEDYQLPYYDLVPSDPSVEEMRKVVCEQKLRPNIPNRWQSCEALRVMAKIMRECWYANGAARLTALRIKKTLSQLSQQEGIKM
Protocol: as §1

HIS-TGFβR2 WT, sequence (P37173 23-567): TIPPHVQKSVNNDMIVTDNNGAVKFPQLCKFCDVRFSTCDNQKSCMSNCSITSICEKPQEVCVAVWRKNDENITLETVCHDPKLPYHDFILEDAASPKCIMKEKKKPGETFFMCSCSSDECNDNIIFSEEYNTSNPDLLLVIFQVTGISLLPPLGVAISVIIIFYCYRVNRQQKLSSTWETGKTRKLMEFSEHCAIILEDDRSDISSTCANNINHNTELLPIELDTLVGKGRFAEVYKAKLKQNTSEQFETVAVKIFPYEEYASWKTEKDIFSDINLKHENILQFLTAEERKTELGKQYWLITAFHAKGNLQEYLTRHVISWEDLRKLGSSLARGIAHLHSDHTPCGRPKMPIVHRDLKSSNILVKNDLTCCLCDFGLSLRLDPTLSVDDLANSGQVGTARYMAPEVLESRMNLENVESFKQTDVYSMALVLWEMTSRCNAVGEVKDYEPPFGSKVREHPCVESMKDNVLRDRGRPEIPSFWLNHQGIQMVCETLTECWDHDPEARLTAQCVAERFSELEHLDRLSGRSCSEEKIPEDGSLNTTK

Row | SMILES | IC50 (HIS-TGFβR2 WT) [µM] | IC50 (HIS-TGFβR1 T204D) [µM]
1 | NC(=O)c1cnc2ccc(-c3c[nH]nc3-c3cccc(C(F)(F)F)n3)cn12 [Example 2, 6-(3-(6-(trifluoromethyl)pyridin-2-yl)-1H-pyrazol-4-yl)imidazo[1,2-a]pyridine-3-carboxamide] | 1.83 | 0.001
2 | N#Cc1cnc2ccc(-c3c[nH]nc3-c3cccc(C(F)F)n3)cn12 [Example 4, 6-(3-(6-(difluoromethyl)pyridin-2-yl)-1H-pyrazol-4-yl)imidazo[1,2-a]pyridine-3-carbonitrile] | 1.11 | 0.001
3 | Cn1cc(-c2ccc3ncc(C(N)=O)n3c2)c(-c2cccc(C(F)(F)F)n2)n1 [Example 10, 6-(1-methyl-3-(6-(trifluoromethyl)pyridin-2-yl)-1H-pyrazol-4-yl)imidazo[1,2-a]pyridine-3-carboxamide] | 8.87 | 0.001
4 | Cc1nc(-c2nn(C)cc2-c2ccc3ncc(C#N)n3c2)ccc1F [Example 11, 6-(3-(5-fluoro-6-methylpyridin-2-yl)-1-methyl-1H-pyrazol-4-yl)imidazo[1,2-a]pyridine-3-carbonitrile] | 5.42 | 0.001
5 | CC(C)(C)Nc1cnc2ccc(-c3c[nH]nc3-c3ccc(F)cc3)cn12 [Example 15, N-(tert-butyl)-6-(3-(4-fluorophenyl)-1H-pyrazol-4-yl)imidazo[1,2-a]pyridin-3-amine] | 12.7 | 0.502
6 | Cc1cccc(-c2n[nH]cc2-c2ccc3ncc(C#N)n3n2)n1 [Example 20, 6-(3-(6-methylpyridin-2-yl)-1H-pyrazol-4-yl)imidazo[1,2-b]pyridazine-3-carbonitrile] | 1.45 | 0.001
7 | Cc1cccc(-c2c(-c3ccc4ncc(C#N)n4c3)cnn2C2CC2)n1 [Example 22, 6-(1-cyclopropyl-5-(6-methylpyridin-2-yl)-1H-pyrazol-4-yl)imidazo[1,2-a]pyridine-3-carbonitrile] | 7.55 | 0.035
8 | Cc1cccc(-c2nn(C)cc2-c2ccc3ncc(C#N)n3c2)n1 [Example 23, 6-(1-methyl-3-(6-methylpyridin-2-yl)-1H-pyrazol-4-yl)imidazo[1,2-a]pyridine-3-carbonitrile] | 2.48 | 0.001
9 | Cc1cccc(-c2nn(C)cc2-c2ccc3ncc(C#N)n3n2)n1 [Example 25, 6-(1-methyl-3-(6-methylpyridin-2-yl)-1H-pyrazol-4-yl)imidazo[1,2-b]pyridazine-3-carbonitrile] | 9.74 | 0.003
10 | Cc1cccc(-c2nn(CC(F)F)cc2-c2ccc3ncc(C#N)n3c2)n1 [Example 27, 6-(1-(2,2-difluoroethyl)-3-(6-methylpyridin-2-yl)-1H-pyrazol-4-yl)imidazo[1,2-a]pyridine-3-carbonitrile] | 11.4 | 0.003
11 | Fc1ccc(-c2n[nH]cc2-c2cc(F)c3nccn3c2)cc1 [Example 30, 8-fluoro-6-(3-(4-fluorophenyl)-1H-pyrazol-4-yl)imidazo[1,2-a]pyridine] | 10.3 | 0.591
12 | Fc1ccc(-c2n[nH]cc2-c2ccc3nncn3c2)cc1 [Example 31, 6-(3-(4-fluorophenyl)-1H-pyrazol-4-yl)-[1,2,4]triazolo[4,3-a]pyridine, TFA] | 9.17 | 0.112
13 | CC(=O)Nc1cc(-c2c[nH]nc2-c2ccc(F)cc2)cn2ccnc12 [Example 33, N-(6-(3-(4-fluorophenyl)-1H-pyrazol-4-yl)imidazo[1,2-a]pyridin-8-yl)acetamide] | 7.06 | 0.811
14 | Fc1ccc(-c2n[nH]cc2-c2ccc3nccn3c2)cc1 [Example 34, 6-(3-(4-fluorophenyl)-1H-pyrazol-4-yl)imidazo[1,2-a]pyridine] | 5.02 | 0.014
15 | Cn1cc(-c2ccc3ncc(C(N)=O)n3c2)c(-c2ccc(F)cc2)n1 [Example 38, 6-(3-(4-fluorophenyl)-1-methyl-1H-pyrazol-4-yl)imidazo[1,2-a]pyridine-3-carboxamide] | 1.54 | 0.002
16 | Fc1ccc(-c2n[nH]cc2-c2ccc3nccn3n2)cc1Cl [Example 39, 6-(3-(3-chloro-4-fluorophenyl)-1H-pyrazol-4-yl)imidazo[1,2-b]pyridazine, TFA] | 1.65 | 0.004
17 | Fc1ccc(-c2n[nH]cc2-c2ccc3nccn3c2)cc1Cl [Example 40, 6-(3-(3-chloro-4-fluorophenyl)-1H-pyrazol-4-yl)imidazo[1,2-a]pyridine, TFA] | 4.97 | 0.003

Continued, values first:

Row | IC50 (HIS-TGFβR2 WT) [µM] | IC50 (HIS-TGFβR1 T204D) [µM] | SMILES
18 | 0.396 |  | Cc1nc(-c2nn(C)cc2-c2ccc3ncc(C(N)=O)n3c2)ccc1F [Example 12, 6-(3-(5-fluoro-6-methylpyridin-2-yl)-1-methyl-1H-pyrazol-4-yl)imidazo[1,2-a]pyridine-3-carboxamide]
19 | 0.101 | 0.007 | N#Cc1cnc2ccc(-c3c[nH]nc3-c3ccc(F)cc3)nn12 [Example 13, 6-(3-(4-fluorophenyl)-1H-pyrazol-4-yl)imidazo [1,2-b]pyridazine-3-carbonitrile]
20 | 0.885 | 0.004 | NC(=O)c1cnc2ccc(-c3c[nH]nc3-c3ccc(F)cc3)nn12 [Example 14, 6-(3-(4-fluorophenyl)-1H-pyrazol-4-yl)imidazo[1,2-b]pyridazine-3-carboxamide]
21 | 0.752 |  | Cc1cccc(-c2n[nH]cc2-c2ccc3[nH]ncc3c2)n1 [Example 18, 5-(3-(6-methylpyridin-2-yl)-1H-pyrazol-4-yl)-1H-indazole]
22 | 0.277 |  | Cc1cccc(-c2n[nH]cc2-c2ccc3nccn3n2)n1 [Example 19, 6-(3-(6-methylpyridin-2-yl)-1H-pyrazol-4-yl)imidazo[1,2-b]pyridazine]
23 | 0.205 |  | Cc1cccc(-c2n[nH]cc2-c2ccc3ncc(C(N)=O)n3n2)n1 [Example 21, 6-(3-(6-methylpyridin-2-yl)-1H-pyrazol-4-yl)imidazo[1,2-b]pyridazine-3-carboxamide]
24 | 0.627 | 0.001 | Cc1cccc(-c2nn(C)cc2-c2ccc3ncc(C(N)=O)n3c2)n1 [Example 24, 6-(1-methyl-3-(6-methylpyridin-2-yl)-1H-pyrazol-4-yl)imidazo[1,2-a]pyridine-3-carboxamide]
25 | 0.075 | 0.001 | Cc1cccc(-c2nn(CC(F)F)cc2-c2ccc3ncc(C(N)=O)n3c2)n1 [Example 28, 6-(1-(2,2-difluoroethyl)-3-(6-methylpyridin-2-yl)-1H-pyrazol-4-yl)imidazo[1,2-a]pyridine-3-carboxamide]
26 | 1.1 | 0.003 | Fc1ccc(-c2n[nH]cc2-c2ccn3ncnc3c2)cc1 [Example 29, 7-(3-(4-fluorophenyl)-1H-pyrazol-4-yl)-[1,2,4]triazolo[1,5-a]pyridine]
27 | 0.221 | 0.011 | N#Cc1cnc2ccc(-c3c[nH]nc3-c3ccc(F)cc3)cn12 [Example 35, 6-(3-(4-fluorophenyl)-1H-pyrazol-4-yl)imidazo[1,2-a]pyridine-3-carbonitrile]
28 | 0.696 | 0.002 | NC(=O)c1cnc2ccc(-c3c[nH]nc3-c3ccc(F)cc3)cn12 [Example 36, 6-(3-(4-fluorophenyl)-1H-pyrazol-4-yl)imidazo[1,2-a]pyridine-3-carboxamide]
29 | 0.165 | 0.042 | Cn1cc(-c2ccc3ncc(C#N)n3c2)c(-c2ccc(F)cc2)n1 [Example 37, 6-(3-(4-fluorophenyl)-1-methyl-1H-pyrazol-4-yl)imidazo[1,2-a]pyridine-3-carbonitrile]
30 | 0.098 | 0.001 | N#Cc1cnc2ccc(-c3c[nH]nc3-c3ccc(F)c(Cl)c3)cn12 [Example 41, 6-(3-(3-chloro-4-fluorophenyl)-1H-pyrazol-4-yl)imidazo[1,2-a]pyridine-3-carbonitrile]
31 | 0.33 | 0.001 | NC(=O)c1cnc2ccc(-c3c[nH]nc3-c3ccc(F)c(Cl)c3)cn12 [Example 42, 6-(3-(3-chloro-4-fluorophenyl)-1H-pyrazol-4-yl)imidazo[1,2-a]pyridine-3-carboxamide, TFA]
32 | 0.368 |  | Cc1cc(-c2n[nH]cc2-c2ccc3ncc(C(N)=O)n3c2)ccc1F [Example 50, 6-(3-(4-fluoro-3-methylphenyl)-1H-pyrazol-4-yl)imidazo[1,2-a]pyridine-3-carboxamide]
33 | 0.518 |  | NC(=O)c1cnc2ccc(-c3cn(CC(F)F)nc3-c3ccc(F)c(Cl)c3)cn12 [Example 62, 6-(3-(3-chloro-4-fluorophenyl)-1-(2,2-difluoroethyl)-1H-pyrazol-4-yl)imidazo[1,2-a]pyridine-3-carboxamide]
34 | 0.143 |  | NC(=O)c1cnc2ccc(-c3c(-c4ccc(F)cc4)n[nH]c3C3CC3)cn12 [Example 85, 6-(5-cyclopropyl-3-(4-fluorophenyl)-1H-pyrazol-4-yl)imidazo[1,2-a]pyridine-3-carboxamide]
